Experimental findings from patent publication US7906516B2, “Carbonyl compounds” (Merck Patent GmbH, priority 2003, dated 2011) are described below.

One data set deals with FXa (Homo sapiens, UniProt P00742). Description: Factor Xa inhibition (FXa-IC50). Format: biochemical.
FXa, sequence (P00742 235-488 limits assumed): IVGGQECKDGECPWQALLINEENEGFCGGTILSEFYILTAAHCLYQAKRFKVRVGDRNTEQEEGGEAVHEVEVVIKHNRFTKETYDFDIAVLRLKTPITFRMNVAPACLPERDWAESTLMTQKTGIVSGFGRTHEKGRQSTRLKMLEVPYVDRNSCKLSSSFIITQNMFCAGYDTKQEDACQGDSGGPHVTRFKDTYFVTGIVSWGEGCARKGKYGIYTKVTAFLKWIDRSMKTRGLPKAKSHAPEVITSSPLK
FXa, sequence (P00742 41-179 partner limits assumed): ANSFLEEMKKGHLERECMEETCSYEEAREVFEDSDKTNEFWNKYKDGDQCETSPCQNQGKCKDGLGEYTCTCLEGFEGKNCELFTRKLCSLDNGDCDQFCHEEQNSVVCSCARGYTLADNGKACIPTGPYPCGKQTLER
As usually defined, the IC50 is the concentration that inhibits the measured activity by half. A higher IC50 goes with weaker potency in that assay. For the molecule `O=C(Nc1ccc(N2CCOCC2=O)cc1)[C@H]1COCN1C(=O)Nc1ccc(Cl)cc1` [Compound A2, 3-N-[(4-chlorophenyl)]-4-N-{[4-(3-oxomorpholin-4-yl)phenyl]}-(R)-oxazolidine-3,4-dicarboxamide], half-maximal inhibition (IC50) was put at 27 nM.

For a further data set, the target named is TF/FVIIa (Homo sapiens, UniProt P08709). Description: TF/factor VIIa inhibition (TF/FVIIa-IC50). It counts as biochemical.
TF/FVIIa, sequence (P08709 213-466 limits assumed): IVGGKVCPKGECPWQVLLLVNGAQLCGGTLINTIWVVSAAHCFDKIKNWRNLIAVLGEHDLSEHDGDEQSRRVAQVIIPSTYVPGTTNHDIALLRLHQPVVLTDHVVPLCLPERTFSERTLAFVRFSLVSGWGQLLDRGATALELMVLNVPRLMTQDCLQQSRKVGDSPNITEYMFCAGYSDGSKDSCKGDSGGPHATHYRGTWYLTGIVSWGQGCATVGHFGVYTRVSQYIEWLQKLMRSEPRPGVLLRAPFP
TF/FVIIa, sequence (P08709 61-212 partner limits assumed): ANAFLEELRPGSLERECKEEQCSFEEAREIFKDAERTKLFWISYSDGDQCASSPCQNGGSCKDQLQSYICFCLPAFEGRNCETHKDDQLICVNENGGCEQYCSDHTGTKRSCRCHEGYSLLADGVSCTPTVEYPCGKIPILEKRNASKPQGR
TF/FVIIa, sequence (P13726 33-295 partner): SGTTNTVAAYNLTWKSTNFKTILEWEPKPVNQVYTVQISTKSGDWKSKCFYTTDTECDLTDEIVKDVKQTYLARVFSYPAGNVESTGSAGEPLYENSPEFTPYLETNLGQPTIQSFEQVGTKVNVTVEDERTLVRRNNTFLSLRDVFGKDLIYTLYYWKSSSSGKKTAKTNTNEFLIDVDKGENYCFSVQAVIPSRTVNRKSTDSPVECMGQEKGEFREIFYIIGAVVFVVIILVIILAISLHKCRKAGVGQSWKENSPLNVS
`O=C(Nc1ccc(N2CCOCC2=O)cc1)[C@H]1CCCN1C(=O)Nc1ccc(Cl)cc1` [Compound A1, 1-N-[(4-chlorophenyl)]-2-N-{[4-(3-oxomorpholin-4-yl)phenyl]}-(R)-pyrrolidine-1,2-dicarboxamide] returned an IC50 of 23 nM. The same measure, in the same setting: the figure for `O=C(Nc1ccc(N2CCOCC2=O)cc1)[C@H]1CCCN1C(=O)c1ccc(Cl)s1` [AB1, N-[4-(3-oxomorpholin-4-yl)phenyl]-(R)-1-(5-chlorothiophene-2-carbonyl)-pyrrolidine-2-carboxamide] is 3900 nM.

Test system in the next data set: not given
Experiment: not given
The melting point is the temperature, or range, at which the solid turns liquid. The molecule `O=C(Nc1ccc(N2CCOCC2=O)cc1)[C@H]1C[C@@H](O)CN1C(=O)Cc1ccc(Cl)cc1` returned a melting point of 141 °C.

As for `O=C(Nc1ccc(N2CCOCC2=O)cc1)[C@H]1CCCN1C(=O)Nc1ccc(Cl)cc1` [Compound A1, 1-N-[(4-chlorophenyl)]-2-N-{[4-(3-oxomorpholin-4-yl)phenyl]}-(R)-pyrrolidine-1,2-dicarboxamide], the melting point stood at 227.6 °C.

In turn, `CC(C)C(=O)O[C@@H]1C[C@H](C(=O)Nc2ccc(N3CCOCC3=O)cc2)N(C(=O)Nc2ccc(Cl)cc2)C1` returned a melting point of 129 °C. Still for that read-out and setting: then `O=C(Nc1ccc(N2CCOCC2=O)cc1)[C@H]1CCCN1C(=O)c1ccc(Cl)s1` [AB1, N-[4-(3-oxomorpholin-4-yl)phenyl]-(R)-1-(5-chlorothiophene-2-carbonyl)-pyrrolidine-2-carboxamide], with 195 °C; and `O=C1C[C@H](C(=O)Nc2ccc(N3CCOCC3=O)cc2)N(C(=O)Nc2ccc(Cl)cc2)C1`, with 154 °C. `O=C(Nc1ccc(N2CCOCC2=O)cc1)[C@H]1C=CCN1C(=O)Nc1ccc(Cl)cc1` yielded a melting point of 245 °C.

Regarding `CCO[C@@H]1C[C@H](C(=O)Nc2ccc(N3CCOCC3=O)c(C)c2)N(C(=O)Nc2ccc(Cl)cc2)C1`, the melting point was 117 °C. Same read-out and setting: then `CO[C@@H]1C[C@H](C(=O)Nc2ccc(N3CCOCC3=O)cc2)N(C(=O)Nc2ccc(Cl)cc2)C1`, with 133 °C; and `O=C(Nc1ccc(N2CCOCC2=O)cc1)[C@H]1C[C@@H](O)CN1C(=O)/C=C/c1ccc(Cl)s1`, with 151 °C.

Consider `O=C(NC1CCC(N2CCOCC2=O)CC1)[C@H]1C[C@@H](O)CN1C(=O)Nc1ccc(Cl)cc1` (stereo partly shown), for which the melting point was 245 °C.
